Data as given in ChEMBL document CHEMBL4831545, “Hormesis Effect of Berberine against Klebsiella pneumoniae Is Mediated by Up-Regulation of the Efflux Pump KmrA” (J Nat Prod, 2021).
Activity calls are given as the source filed them. The calls are words filed in the database; no cut-off is given here.

Assays:
[1] = tested on: Enterobacter cloacae; experiment: Hormesis activity against Enterobacter cloacae assessed as promotion of bacterial growth up to 25 ug/ml measured for 24 hrs in presence of 8 ug/ml tetracycline by OD600 based analysis; type: organism-based; conditions: in vivo, dose <=25 µg/ml
[2] = tested on: Klebsiella pneumoniae; experiment: Hormesis activity against Klebsiella pneumoniae deficient in KmrA gene expression assessed as increase in antibiotic MIC by measuring rifampicin MIC at 3 ug/ml incubated for 12 hrs by OD600 based analysis (reference value: 25 ug/ml); type: ADME, organism-based; conditions: in vivo, dose 3 µg/ml
[3] = tested on: Enterobacter cloacae; experiment: Hormesis activity against overnight compound-treated Enterobacter cloacae assessed as increase in antibiotic MIC by measuring rifampicin MIC at 3 ug/ml incubated for 12 hrs by OD600 based analysis (reference value: 25 ug/ml); type: ADME, organism-based; conditions: in vivo, dose 3 µg/ml
[4] = tested on: Klebsiella pneumoniae; experiment: Hormesis activity against overnight compound-treated Klebsiella pneumoniae assessed as increase in antibiotic MIC by measuring ampicillin MIC at 3 ug/ml incubated for 12 hrs by OD600 based analysis (reference value: 12.5 ug/ml); type: ADME, organism-based; conditions: in vivo, dose 3 µg/ml
[5] = tested on: Acinetobacter baumannii; experiment: Hormesis activity against Acinetobacter baumannii assessed as promotion of bacterial growth at 3 to 50 ug/ml measured for 24 hrs in presence of 80 to 120 ug/ml tetracycline by OD600 based analysis; type: organism-based; conditions: in vivo, dose 3-50 µg/ml
[6] = tested on: Acinetobacter baumannii; experiment: Hormesis activity against Acinetobacter baumannii assessed as increase in antibiotic MIC by measuring azithromycin MIC at 3 ug/ml incubated for 12 hrs by OD600 based analysis (reference value: 200 ug/ml); type: ADME, organism-based; conditions: in vivo, dose 3 µg/ml
[7] = tested on: Klebsiella pneumoniae; experiment: Hormesis activity against overnight compound-treated Klebsiella pneumoniae deficient in KmrA gene expression assessed as increase in antibiotic MIC by measuring tetracycline MIC at 3 ug/ml incubated for 12 hrs by OD600 based analysis (reference value: 6 ug/ml); type: ADME, organism-based; conditions: in vivo, dose 3 µg/ml
[8] = tested on: Enterobacter cloacae; experiment: Hormesis activity against overnight compound-treated Enterobacter cloacae assessed as increase in antibiotic MIC by measuring azithromycin MIC at 3 ug/ml incubated for 12 hrs by OD600 based analysis (reference value: 6.25 ug/ml); type: ADME, organism-based; conditions: in vivo, dose 3 µg/ml
[9] = tested on: Klebsiella pneumoniae; experiment: Hormesis activity against Klebsiella pneumonia assessed as inhibition of bacterial growth at 12 ug/ml measured after 24 hrs by OD600 based analysis; type: functional, organism-based; conditions: dose 12.0 µg/ml
[10] = tested on: Enterobacter cloacae; experiment: Hormesis activity against Enterobacter cloacae assessed as increase in antibiotic MIC by measuring ampicillin MIC at 3 ug/ml incubated for 12 hrs by OD600 based analysis (reference value: 25 ug/ml); type: ADME, organism-based; conditions: in vivo, dose 3 µg/ml
[11] = tested on: Enterobacter cloacae; experiment: Hormesis activity against Enterobacter cloacae assessed as increase in antibiotic MIC by measuring hygromycinMIC at 3 ug/ml incubated for 12 hrs by OD600 based analysis (reference value: 25 ug/ml); type: ADME, organism-based; conditions: in vivo, dose 3 µg/ml
[12] = tested on: Klebsiella pneumoniae; experiment: Hormesis activity against Klebsiella pneumoniae assessed as promotion of bacterial growth at 3 to 6 ug/ml measured for 24 hrs in presence of efflux pump inhibitor, CCCP by OD600 based analysis; type: ADME, organism-based; conditions: in vivo, dose 3-6 µg/ml
[13] = tested on: Acinetobacter baumannii; experiment: Hormesis activity against overnight-compound treated Acinetobacter baumannii assessed as increase in antibiotic MIC by measuring azithromycin MIC at 3 ug/ml incubated for 12 hrs by OD600 based analysis (reference value: 200 ug/ml); type: ADME, organism-based; conditions: in vivo, dose 3 µg/ml
[14] = tested on: Enterobacter cloacae; experiment: Hormesis activity against overnight compound-treated Enterobacter cloacae assessed as increase in antibiotic MIC by measuring cefotaxime MIC at 3 ug/ml incubated for 12 hrs by OD600 based analysis (reference value: 1.5625 ug/ml); type: ADME, organism-based; conditions: in vivo, dose 3 µg/ml
[15] = tested on: Enterobacter cloacae; experiment: Hormesis activity against Enterobacter cloacae assessed as increase in antibiotic MIC by measuring azithromycin MIC at 3 ug/ml incubated for 12 hrs by OD600 based analysis (reference value: 6.25 ug/ml); type: ADME, organism-based; conditions: in vivo, dose 3 µg/ml
[16] = tested on: Klebsiella pneumoniae; experiment: Hormesis activity against Klebsiella pneumoniae assessed as increase in antibiotic MIC by measuring tetracycline MIC at 3 ug/ml incubated for 12 hrs by OD600 based analysis (reference value: 6 ug/ml); type: ADME, organism-based; conditions: in vivo, dose 3 µg/ml
[17] = tested on: Klebsiella pneumoniae; experiment: Hormesis activity against overnight compound-treated Klebsiella pneumoniae deficient in KmrA gene expression assessed as increase in antibiotic MIC by measuring atreonamMIC at 3 ug/ml incubated for 12 hrs by OD600 based analysis (reference value: 1.5625 ug/ml); type: ADME, organism-based; conditions: in vivo, dose 3 µg/ml
[18] = tested on: Klebsiella pneumoniae; experiment: Hormesis activity against Klebsiella pneumoniae assessed as increase in antibiotic MIC by measuring chloramphenicol MIC at 3 ug/ml incubated for 12 hrs by OD600 based analysis (reference value: 6.25 ug/ml); type: ADME, organism-based; conditions: in vivo, dose 3 µg/ml
[19] = tested on: Acinetobacter baumannii; experiment: Hormesis activity against overnight-compound treated Acinetobacter baumannii assessed as increase in antibiotic MIC by measuring meropenem MIC at 3 ug/ml incubated for 12 hrs by OD600 based analysis (reference value: 0.625 ug/ml); type: ADME, organism-based; conditions: in vivo, dose 3 µg/ml
[20] = tested on: Klebsiella pneumoniae; experiment: Hormesis activity against Klebsiella pneumoniae deficient in KmrA gene expression assessed as increase in antibiotic MIC by measuring streptomycin MIC at 3 ug/ml incubated for 12 hrs by OD600 based analysis (reference value: 0.78125 ug/ml); type: ADME, organism-based; conditions: in vivo, dose 3 µg/ml
[21] = tested on: Klebsiella pneumoniae; experiment: Hormesis activity against Klebsiella pneumoniae assessed as increase in antibiotic MIC by measuring atreonamMIC at 3 ug/ml incubated for 12 hrs by OD600 based analysis (reference value: 1.5625 ug/ml); type: ADME, organism-based; conditions: in vivo, dose 3 µg/ml
[22] = Upregulation of KmrA promoter activity in Klebsiella pneumoniae assessed as increase in beta-galactosidase activity at 3 ug/ml by LacZ based OD600 analysis relative to control; type: ADME; conditions: dose 3 µg/ml
[23] = tested on: Enterobacter cloacae; experiment: Hormesis activity against overnight compound-treated Enterobacter cloacae assessed as increase in antibiotic MIC by measuring streptomycin MIC at 3 ug/ml incubated for 12 hrs by OD600 based analysis (reference value: 12.5 ug/ml); type: ADME, organism-based; conditions: in vivo, dose 3 µg/ml
[24] = tested on: Klebsiella pneumoniae; experiment: Hormesis activity against Klebsiella pneumoniae deficient in KmrA gene expression assessed as increase in antibiotic MIC by measuring ciprofloxacin MIC at 3 ug/ml incubated for 12 hrs by OD600 based analysis (reference value: 0.0390625 ug/ml); type: ADME, organism-based; conditions: in vivo, dose 3 µg/ml
[25] = tested on: Klebsiella pneumoniae; experiment: Hormesis activity against overnight compound-treated Klebsiella pneumoniae deficient in KmrA gene expression assessed as increase in antibiotic MIC by measuring cefotaxime MIC at 3 ug/ml incubated for 12 hrs by OD600 based analysis (reference value: 0.39625 ug/ml); type: ADME, organism-based; conditions: in vivo, dose 3 µg/ml
[26] = tested on: Klebsiella pneumoniae; experiment: Hormesis activity against Klebsiella pneumoniae assessed as increase in antibiotic MIC by measuring rifampicin MIC at 3 ug/ml incubated for 12 hrs by OD600 based analysis (reference value: 25 ug/ml); type: ADME, organism-based; conditions: in vivo, dose 3 µg/ml
[27] = tested on: Klebsiella pneumoniae; experiment: Hormesis activity against Klebsiella pneumoniae assessed as increase in antibiotic MIC by measuring ampicillin MIC at 3 ug/ml incubated for 12 hrs by OD600 based analysis (reference value: 12.5 ug/ml); type: ADME, organism-based; conditions: in vivo, dose 3 µg/ml
[28] = tested on: Klebsiella pneumoniae; experiment: Hormesis activity against Klebsiella pneumonia deficient in KmrA gene expression assessed as promotion of bacterial growth at 3 to 6 ug/ml measured for 24 hrs by OD600 based analysis; type: organism-based; conditions: in vivo, dose 3-6 µg/ml
[29] = tested on: Enterobacter cloacae; experiment: Hormesis activity against overnight compound-treated Enterobacter cloacae assessed as increase in antibiotic MIC by measuring chloramphenicol MIC at 3 ug/ml incubated for 12 hrs by OD600 based analysis (reference value: 3.125 ug/ml); type: ADME, organism-based; conditions: in vivo, dose 3 µg/ml

COc1ccc2cc3[n+](cc2c1OC)CCc1cc2c(cc1-3)OCO2 [BERBERINE]
Activity [1]: Toxic | MIC [2]: 25 µg/mL | MIC [3]: 50 µg/mL | MIC [4]: 12.5 µg/mL | Activity [5]: Toxic | MIC [6]: 200 µg/mL | MIC [7]: 6 µg/mL | MIC [8]: 6.25 µg/mL | Activity [9]: Active | MIC [10]: 25 µg/mL | MIC [11]: 25 µg/mL | Activity [12]: Non-Toxic | MIC [13]: 400 µg/mL | MIC [14]: 3.125 µg/mL | MIC [15]: 6.25 µg/mL | MIC [16]: 6 µg/mL | MIC [17]: 1.5625 µg/mL | MIC [18]: 6.25 µg/mL | MIC [19]: 0.625 µg/mL | MIC [20]: 0.7812 µg/mL | MIC [21]: 1.5625 µg/mL | fold change (FC) [22]: 2.5 | MIC [23]: 25 µg/mL | MIC [24]: 0.03906 µg/mL | MIC [25]: 0.3962 µg/mL | MIC [26]: 25 µg/mL | MIC [27]: 12.5 µg/mL | Activity [28]: Non-Toxic | MIC [29]: 3.125 µg/mL
